In brackets after ≈: the same amount, converted by molar mass.
Key:
Human C5 [1] = biological target: T1, Human C5 (Homo sapiens, UniProt P01031); test: Red blood cell (RBC) hemolysis assay, luminescent (Example 13, Table 22); type: cell-based; conditions: sheep EA cells, […] C5-depleted human serum, 0.5 nM human C5, 1 hour 37° C., luminescence
T1 construct: purchased Complement Technology
Excerpt: Compound CU0136 is a racemic mixture of Compound CU0186 and CU0187. Numbers in parenthesis following compound numbers indicate alternate enantiomers (as distinguished by retention time during chromatographical separation).

[2] = Kinetic solubility in PBS pH 7.4, HPLC-UV (Example 21, Table 27); type: physicochemical; conditions: phosphate buffered saline, aqueous buffer, kinetic from dmso stock, 0.5 M PBS, shaken minimum 24 h at approximately 25° C., HPLC-UV 270 nm
In short: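 10 mM DMSO stock diluted into 0.05 M PBS pH 7.4 (5% DMSO final), in triplicate, shaken ≥24 h at ~25 °C, then filtered by centrifugation. Supernatant concentration by HPLC-UV at 270 nm against external DMSO standards (15.6–500.0 μM).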

[3] = Permeability assay, unidirectional transport, Papp (Example 30, Table 34); type: in vitro ADME, canine; conditions: dog, pH 7.4; MDCK-WT cell monolayers, A-to-B, 3 μM test compound, 37° C., duplicate determinations
Description: (§1) Permeability assays were carried out to provide a preliminary indication of suitability for oral dosing and compound permeability across the blood brain barrier. Unidirectional and bidirectional compound transport across Madin Darby canine kidney (MDCK) cell monolayers was assessed. For unidirectional transport assessment, transport across MDCK wild type (MDCK-WT) cell monolayers was assessed. For bidirectional transport, transport across MDCK-MDR1 cell monolayers was assessed. MDCK-MDR1 cells express the MDR1 gene encoding the P-glycoprotein (P-gp) efflux protein.
(§2) MDCK-WT and MDCK-MDR1 cells were plated onto permeable polycarbonate supports in 12-well Costar transwell plates and allowed to grow and differentiate for 3 days. After 3 days in culture, the culture medium (DMEM supplemented with 10% FBS) was removed from both sides of the transwell inserts and cells were rinsed with warm HBSS. After the rinse step, the chambers were filled with warm transport buffer (HBSS containing 10 mM HEPES, 0.25% BSA, pH 7.4) and the plates were pre-incubated at 37° C. for 30 minutes prior to TEER (Trans Epithelial Electric Resistance) measurements.
(§3) The buffer in the donor chamber (apical side for A-to-B assay, basolateral side for B-to-A assay) was removed and replaced with the working solution (3 μM test compound and 10 μM for control compounds in transport buffer). The plates were then placed at 37° C. under light agitation. At designated time points (30, 60 and 90 min), an aliquot of transport buffer from the receiver chamber was removed and replenished with fresh transport buffer. Samples were quenched with ice-cold ACN containing internal standard and then centrifuged to pellet protein. Resulting supernatants were further diluted with 50/50 ACN/H2O (Atenolol diluted in just water) and submitted for LC-MS/MS analysis. Apparent permeability (Pap) values were calculated from duplicate determinations. Atenolol and propranolol were tested as low and […] permeability references.
Papp values indicate extent of compound permeation across monolayers.

[4] = system: P-glycoprotein (P-gp, MDR1); test: Permeability assay, bidirectional transport, efflux ratio (Example 30, Table 34); type: in vitro ADME, canine; conditions: dog, MDCK-MDR1, pH 7.4; read-out: MDCK-MDR efflux ratio
Description: as §1, §2, §3
Efflux ratios were calculated for bidirectional transport across MDCK-MDR1 cell monolayers as an indication of compound efflux by P-gp. The efflux ratio is calculated using the ratio of mean Papp values for B to A transport to mean Papp values for A to B transport [Papp(BA)/Papp(AB)].

Human C5 [5] = biological target: T1, Human C5; test: Red blood cell (RBC) hemolysis assay, luminescent (Example 28, Table 32); type: cell-based; conditions: sheep EA cells, 1.5% C5-depleted human serum, 0.5 nM human C5, 1 hour at 37° C., luminescence (Table 32)
[6] = biological target: human C5 complement protein (Homo sapiens, UniProt P01031); test: Surface plasmon resonance (SPR), immobilized human C5, 37° C. (Example 27, Table 31); type: binding; conditions: lowest value obtained where a range of concentrations was analyzed (Table 31)
Sequence of human C5 complement protein (P01031 19-1676): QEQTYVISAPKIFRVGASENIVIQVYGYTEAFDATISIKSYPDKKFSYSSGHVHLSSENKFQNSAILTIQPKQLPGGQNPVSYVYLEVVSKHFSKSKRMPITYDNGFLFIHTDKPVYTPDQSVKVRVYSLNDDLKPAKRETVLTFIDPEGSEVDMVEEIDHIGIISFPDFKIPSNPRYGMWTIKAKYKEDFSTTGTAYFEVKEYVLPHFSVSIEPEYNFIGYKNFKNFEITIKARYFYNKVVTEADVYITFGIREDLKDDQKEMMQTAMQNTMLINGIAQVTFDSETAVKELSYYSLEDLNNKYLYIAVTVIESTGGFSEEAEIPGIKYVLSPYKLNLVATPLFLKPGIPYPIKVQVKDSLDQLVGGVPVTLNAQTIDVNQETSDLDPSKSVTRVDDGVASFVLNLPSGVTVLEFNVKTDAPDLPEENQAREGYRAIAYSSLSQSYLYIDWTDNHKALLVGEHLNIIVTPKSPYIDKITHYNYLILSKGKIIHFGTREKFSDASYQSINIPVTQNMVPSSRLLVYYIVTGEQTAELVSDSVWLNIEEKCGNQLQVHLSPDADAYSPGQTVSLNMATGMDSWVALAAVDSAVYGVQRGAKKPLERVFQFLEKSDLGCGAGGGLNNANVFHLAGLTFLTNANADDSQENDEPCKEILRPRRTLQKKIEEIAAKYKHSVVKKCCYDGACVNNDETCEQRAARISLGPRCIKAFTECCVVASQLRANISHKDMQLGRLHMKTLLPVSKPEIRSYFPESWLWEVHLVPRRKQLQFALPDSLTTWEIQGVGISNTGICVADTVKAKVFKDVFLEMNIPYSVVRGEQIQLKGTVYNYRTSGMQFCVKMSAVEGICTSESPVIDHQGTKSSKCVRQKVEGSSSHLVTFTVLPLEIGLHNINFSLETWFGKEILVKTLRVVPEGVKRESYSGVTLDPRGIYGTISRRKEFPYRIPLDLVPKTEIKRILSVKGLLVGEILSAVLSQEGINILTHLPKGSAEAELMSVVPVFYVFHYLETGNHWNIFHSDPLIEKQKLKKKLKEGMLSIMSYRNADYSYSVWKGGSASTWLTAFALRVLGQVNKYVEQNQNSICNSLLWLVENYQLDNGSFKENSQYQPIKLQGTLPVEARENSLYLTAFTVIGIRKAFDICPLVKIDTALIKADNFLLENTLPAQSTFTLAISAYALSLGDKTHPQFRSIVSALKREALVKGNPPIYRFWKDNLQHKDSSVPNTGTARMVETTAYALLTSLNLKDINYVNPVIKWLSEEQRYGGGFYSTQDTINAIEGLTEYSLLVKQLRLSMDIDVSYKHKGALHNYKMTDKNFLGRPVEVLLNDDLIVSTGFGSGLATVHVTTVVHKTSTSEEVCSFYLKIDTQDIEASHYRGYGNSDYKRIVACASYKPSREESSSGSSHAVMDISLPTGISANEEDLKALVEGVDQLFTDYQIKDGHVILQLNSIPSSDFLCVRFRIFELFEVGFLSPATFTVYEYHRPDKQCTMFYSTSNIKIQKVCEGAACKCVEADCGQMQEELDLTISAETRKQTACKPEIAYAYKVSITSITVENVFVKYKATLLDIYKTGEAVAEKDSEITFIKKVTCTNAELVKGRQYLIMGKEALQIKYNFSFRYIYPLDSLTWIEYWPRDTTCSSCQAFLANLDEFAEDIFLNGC

T1 sequence (P01031 19-1676): as above

Row | Structure (SMILES) | IC50 (Human C5 [1]) [nM] | solubility kinetic [2] [µM] | Papp A→B at 3 μM [3] [×10⁻⁶ cm/s] | efflux ratio at 3 μM [4] | IC50 (Human C5 [5]) [nM] | Kd [6] [nM]
1 | COc1cc(CC(=O)N(C)C)ccc1CN1CCCN(c2ccc(OC)c(OCCCC(C)(F)F)c2)C1=O [CU0140] | 15.8 | 404 (≈ 216 µg/mL) | 26 | 63 |  | 
2 | COc1cc(CC(=O)N2CCOCC2)ccc1CN1CCCN(c2ccc(OC)c(OCCCC(C)(F)F)c2)C1=O [CU0145] | 15 | 278 (≈ 160 µg/mL) | 16.8 | 83 |  | 
3 | CCCCCOc1cc(N2CCCN(Cc3ccc(CNC(C)=O)cc3OC)C2=O)ccc1OC [CU0160] | 23.5 | 413 (≈ 200 µg/mL) | 21.6 | 61 |  | 
4 | CCCCCOc1cc(N2CCCN(Cc3ccnc4c3c(Cl)cn4CC(=O)N(C)C)C2=O)ccc1OC [CU0261] | 11 | 31 (≈ 16.8 µg/mL) | 26.1 | 17 |  | 
5 | COc1cc(CNC(C)=O)ccc1CN1CCCN(c2ccc(OC)c(OCCCC3CC3)c2)C1=O [CU0501] |  | 195 (≈ 96.6 µg/mL) | 24.2 | 60 |  | 
6 | CCCCCOc1cc(N2CCCN(Cc3ccnc4c3c(Cl)cn4CC(=O)N3CC4CC(C3)O4)C2=O)ccc1OC [CU0506] |  |  | 21.1 | 59 |  | 
7 | CCCCCOc1cc(N2CCCN(Cc3ccnc4c3c(Cl)cn4CC(=O)N3C[C@H]4C[C@@H]3CO4)C2=O)ccc1OC [CU0510] |  |  | 22.7 | 71 |  | 
8 | CCCCCOc1cc(N2CCCN(Cc3ccc(CNC(C)=O)cc3OC)C2=O)ncc1OC [CU0579] |  | 339 (≈ 164 µg/mL) | 23.5 | 31 |  | 
9 | CCCCCOc1cc(N2CCCN(Cc3ccnc4c3c(Cl)cn4CC(=O)N(C)C)C2=O)cnc1OC [CU0616] |  |  | 29 | 18 |  | 
10 | COc1ccc(N2CCCN(Cc3ccnc4c3c(Cl)cn4CC(=O)N(C)C)C2=O)cc1Br [CU0689] |  |  | 23.8 | 8 |  | 
11 | CCCCCOc1cc(N2CC[C@H](C)N(Cc3ccnc4c3c(Cl)cn4CC(=O)N3CC[C@H](N4CCOCC4)C3)C2=O)ccc1OC [SC0100] |  |  | 14.3 | 62 | 0.9 | 
12 | CCCCCOc1cc(N2CC[C@H](C)N(Cc3ccnc4c3c(Cl)cn4CC(=O)N3CCOC3)C2=O)ccc1OC [SC0113] |  |  | 17.9 |  | 1.3 | 0.02
13 | COc1ccc(N2CC[C@H](C)N(Cc3ccnc4c3c(Cl)cn4CC(=O)N(C)C)C2=O)cc1OCCCC1CC1 [SC0119] |  | 65 (≈ 36.9 µg/mL) |  |  | 1.4 | 1.21
14 | CCCCCOc1cc(N2CC[C@H](C)N(Cc3ccnc4c3c(Cl)cn4CC(=O)N3CCC3)C2=O)ccc1OC [SC0122] |  | 81 (≈ 46 µg/mL) |  |  | 1.5 | 0.22
15 | CCCCCOc1cc(N2CC[C@H](C)N(Cc3cccc4c3c(Cl)cn4CC(=O)N3CCCOCC3)C2=O)ccc1OC [SC0128] |  | < 10 |  |  | 1.7 | 0.02
16 | CCCCCOc1cc(N2CC[C@H](C)N(Cc3cccc4[nH]cc(C)c34)C2=O)ccc1OC [SC0148] |  | < 10 |  |  | 2.2 | 0.92
17 | CCCCCOc1cc(N2CC[C@H](C)N(Cc3cccc4c3c(Cl)cn4CC(=O)N3CCOC(CN(C)C)C3)C2=O)ccc1OC (stereo partly drawn) [SC0154] |  | 315 (≈ 206 µg/mL) |  |  | 2.3 | 0.04
18 | CCCCCOc1cc(N2CC(C)CN(Cc3ccc(CC(=O)N4CCNC(=O)C4)cc3OC)C2=O)ccc1OC (stereo not drawn) [SC0163] |  | 450 (≈ 255 µg/mL) |  |  | 2.8 | 0.89
19 | CCCCCOc1cc(N2CC(CO)CN(Cc3ccc(CC(=O)N(C)C)cc3OC)C2=O)ccc1OC (stereo not drawn) [SC0172] |  | 490 (≈ 259 µg/mL) |  |  | 3.8 | 2.25
20 | COc1ccc(N2CC[C@H](C)N(Cc3cccc4c3ccn4CC(=O)N(C)C)C2=O)cc1OCCCC1CC1 [SC0174] |  | 40 (≈ 21.3 µg/mL) |  |  | 4.3 | 0.78
21 | CCCCCOc1cc(N2CC(CO)CN(Cc3ccc(CC(=O)N4CCNC(=O)C4)cc3OC)C2=O)ccc1OC (stereo not drawn) [SC0178] |  | 443 (≈ 258 µg/mL) |  |  | 4.8 | 1.07
22 | CCCCCOc1cc(N2CC(CO)CN(Cc3ccc(CC(=O)N4CCOCC4)cc3OC)C2=O)ccc1OC (stereo not drawn) [SC0183] |  | > 500 |  |  | 5.3 | 3.88

From patent US20230115176A1 (Ra Pharmaceuticals, Inc., priority 2019, published 2023)
